Format in all cases: cell-based
The test system of test [1] is Bacteroides fragilis sp. fragilis 1936B. Put plainly: Susceptibility of anaerobic bacteria, agar dilution. The conditions noted are these: 24 h, read-out: 24 Hr. Minimum Inhibitory Concentration. A general note: In agar dilution, organisms are placed on agar that contains the substance at set levels.
In test [2] the test system is Bacteroides fragilis sp. vulgatus 1563. The test is described as above. Conditions: 24 h, read-out: 24 Hr. Minimum Inhibitory Concentration.
For test [3], the system named is Bacteroides fragilis sp. thetaiotaomicron 1438. Described as above. Conditions: 24 h, read-out: 24 Hr. Minimum Inhibitory Concentration.
Test [4] relates to Eubacterium aerofaciens 1235. Described as above. The conditions noted are these: read-out: 24 Hr. Minimum Inhibitory Concentration.
For test [5], the system named is Clostridium septicum bovine. The description is as above. The conditions noted are these: 24 h, read-out: 24 Hr. Minimum Inhibitory Concentration. The procedure: (§1) The susceptibility of anaerobic bacteria, both gram positive and gram negative, to a representative number of the novel compounds of this application was determined using the agar dilution method. The bacteria used were isolated from patients hospitalized at the Indiana University Medical Center. The isolates were identified in the anaerobe laboratory of the Medical Center by the criteria established by Dowell et al., Laboratory Methods in Anaerobic Bacteriology. Public Health Serv. Publ. No. 1803 (1968) [Center for Disease Control, Atlanta, Ga.]; and by Smith et al., The Pathogenic Anaerobic Bacteria, pages 96-136 (1968) [Charles C. Thomas, Publisher, Springfield, Ill.]. All the organisms were maintained in chopped meat glucose medium (Scott Labs) at room temperature.
(§2) The method used for the agar dilution tests was based on the studies of Sutter et al., Antimicrob. Ag. Chemother. 3, 188-193 (1973). The strains of anaerobic bacteria were grown in 16 × 120 mm. tubes for 16 to 18 hours in Thioglycolate medium without indicator--135C (Becton, Dickinson and Co.), to which was added 5 mcg. of hemin per milliliter prior to autoclaving, plus 1 mg. of sodium bicarbonate and 0.1 mcg. of filter-sterilized menadione per milliliter after autoclaving. The growth tubes for the bacteria Veillonella alcalescens were additionally supplemented with 5 mg. of sodium lactate per milliliter. The strains were adjusted to the turbidity of the No. 1 McFarland standard in Thioglycolate medium without indicator--135C containing an additional 0.13 percent Bacto-agar (Difco). Each strain was then applied to the surface of the petri plate (100 mm. × 15 mm.) by means of a replicator.
(§3) For the agar dilution studies, two-fold dilutions of the test compounds were prepared in deionized water to which was then added laked sheep blood and filter-sterilized menadione so the concentrations after the agar dilution were 5 percent and 10 mcg./ml. respectively. An equal volume of double strength Brucella agar (Becton, Dickinson and Co.) was mixed with each dilution in a water bath held at 50°C. and then poured onto the petri plates.
(§4) All of the procedures were done inside a plastic glove box, except for the incubation of the growth tubes and the pouring of the plates. After the plates hardened, they were put inside the glove box for a minimum of two hours before they were inoculated. Generally, the glove box procedures of Aranki et al., Applied Microbiology 17, 568-576 (1969), were followed, but the following modifications were used. Dry materials were introduced into the glove box by evacuating the lock to 28 inches of mercury and filling once with nitrogen gas, followed by evacuating in the same manner and filling with an 80 percent nitrogen plus 10 percent CO2 plus 10 percent hydrogen gas mixture. Liquid media and agar plates were introduced into the glove box by evacuating the lock to 10 inches of mercury and filling with gas four times. The nitrogen gas was used to fill the lock for the first two cycles of evacuation, with the gas mixture described above used for the final two fillings.
(§5) All the plates were incubated at 37°C. in Gas Pak jars (Becton, Dickinson and Co.) containing palladium-coated alumina catalysts (reactivated after each use). The results of the agar dilution tests were read after about 24 hours of incubation. The minimum inhibitory concentration (MIC) was recorded as the lowest concentration of test compound at which there was no growth.
(§6) The results of these in vitro tests are recorded in Charts 11 and 12 which follow. The test compounds are identified in the same manner as in the previous experiments. The antibiotics cephalothin and erythromycin were also run simultaneously with the novel compounds of this application, for comparison purposes, and the results are included in Charts 11 and 12 below.

For test [6], the system named is Clostridium septicum 1128. Described as above. The conditions noted are these: 24 h, read-out: 24 Hr. Minimum Inhibitory Concentration. The procedure: as §1, §2, §3, §4, §5, §6
Test [7] has as its system Clostridium innocuum 1373. Described as above. Conditions: read-out: 24 Hr. Minimum Inhibitory Concentration.
Test [8] concerns Fusobacterium symbiosum 1470. The description is as above. Conditions: read-out: 24 Hr. Minimum Inhibitory Concentration.
Test [9] has as its system Bacteroides fragilis sp. fragilis 1877. The description is as above. The conditions noted are these: 24 h, read-out: 24 Hr. Minimum Inhibitory Concentration.
Test [10] relates to Clostridium perfringens 81. Kind of test: microbe, parasite or virus in culture. The conditions noted are these: Clostridium perfringens, 81, 24 h, read-out: 24 Hr. Minimum Inhibitory Concentration.
In another test the test system is Clostridium ramosum 1313. Put plainly: Susceptibility of anaerobic bacteria, agar dilution. Conditions: read-out: 24 Hr. Minimum Inhibitory Concentration.
Test [11] deals with Peptostreptococcus intermedius 1264. The description is as above. The conditions noted are these: 24 h; Peptostreptococcus intermedius 1264; read-out: 24 Hr. Minimum Inhibitory Concentration.
In test [12] the test system is Bacteroides fragilis sp. vulgatus 1211. Described as above. Conditions: 24 h, read-out: 24 Hr. Minimum Inhibitory Concentration.
Test [13] relates to Fusobacterium necrophorum 13859. Described as above. The conditions noted are these: read-out: 24 Hr. Minimum Inhibitory Concentration.
Test [14] relates to Veillonella alcalescens 1. The test is described as above. Conditions: read-out: 24 Hr. Minimum Inhibitory Concentration.
Test [15] has as its system Peptococcus anaerobius 1428. The test is described as above. The conditions noted are these: 24 h, read-out: 24 Hr. Minimum Inhibitory Concentration.
Test [16] has as its system Propionibacterium acnes 79. The test is described as above. The conditions noted are these: read-out: 24 Hr. Minimum Inhibitory Concentration.
The subject of test [17] is Propionibacterium acnes 44. The test is described as above. The conditions noted are these: Cutibacterium acnes, 24 h; Propionibacterium acnes 44; read-out: 24 Hr. Minimum Inhibitory Concentration.
Another test relates to Actinomyces bovis 13684. Described as above. The conditions noted are these: read-out: 24 Hr. Minimum Inhibitory Concentration.
[18] abbreviates: Bacteroides fragilis sp. vulgatus 1563.
[19] abbreviates: Collinsella aerofaciens, 1235, 24 h.
[20] abbreviates: [Clostridium] innocuum, 1373, 24 h.
Setting [21] is: Thomasclavelia ramosa, 1313, 24 h.
Where [22] appears, read: Fusobacterium necrophorum, 13859, 24 h.
Setting [23] is: Bacteroides fragilis sp. fragilis 1936B.

Converted amounts (≈) assume the structure as drawn. Where two headings read alike, the source gives them in different places.

Turning to `CN(C)C=Nc1c(C#N)c(-c2ncc([N+](=O)[O-])n2C)nn1C` [Compound 9, 5-[[(Dimethylamino)methylene]amino]-1-methyl-3-(1-methyl-5-nitro-2-imidazolyl)pyrazole-4-carbonitrile], the MIC in test [1] (Bacteroides fragilis) is less than 0.125 mg/L; in test [2] (setting [18]), 0.25 mg/L (≈ 0.827 µM); in test [3] (Bacteroides fragilis), less than 0.125 mg/L; in [4] (setting [19]) it was less than 0.125 mg/L; in [5], less than 0.125 mg/L; in [6] it was less than 0.125 mg/L. Besides, the MIC was less than 0.125 mg/L in [7] (setting [20]); less than 0.125 mg/L in [8] (Fusobacterium, 1470, 24 h); less than 0.125 mg/L in [9] (Bacteroides fragilis); less than 0.125 mg/L in test [10]; less than 0.125 mg/L in the test with Clostridium ramosum 1313 (setting [21]); more than 32 mg/L in [11]. In addition, the MIC in test [12] (Bacteroides fragilis) is less than 0.125 mg/L; in test [13] (setting [22]), less than 0.125 mg/L; in [14] (Veillonella parvula, 1, 24 h), less than 0.125 mg/L; in [15], less than 0.125 mg/L; in [16] (Cutibacterium acnes, 79, 24 h) it was less than 0.125 mg/L; in test [17] it was more than 32 mg/L. Further, the MIC with Actinomyces bovis 13684 (Actinomyces bovis, 13684, 24 h) is less than 0.125 mg/L.
Take `CNNC=Nc1c(C#N)c(-c2ncc([N+](=O)[O-])n2C)nn1C` [Compound 21, N-[4-Cyano-1-methyl-3-(1-methyl-5-nitroimidazol-2-yl)pyrazol-5-yl]formimidic acid, 2-methyl hydrazide]: the MIC in [1] (Bacteroides fragilis), in test [2] (Bacteroides fragilis), in test [3] (Bacteroides fragilis), in test [4] (setting [19]), in [5] and in test [6] was less than 0.125 mg/L throughout. For the same molecule, the MIC in test [7] (setting [20]) is less than 0.125 mg/L; in test [8] (Fusobacterium, 1470, 24 h), less than 0.125 mg/L; in test [9] (Bacteroides fragilis), less than 0.125 mg/L; in test [10] it was less than 0.125 mg/L; with Clostridium ramosum 1313 (setting [21]) it was less than 0.125 mg/L; in test [11] it was 0.5 mg/L (≈ 1.65 µM). Besides, the MIC was less than 0.125 mg/L in test [12] (Bacteroides fragilis); less than 0.125 mg/L in test [13] (setting [22]); less than 0.125 mg/L in test [14] (Veillonella parvula, 1, 24 h); less than 0.125 mg/L in test [15]; less than 0.125 mg/L in test [16] (Cutibacterium acnes, 79, 24 h); 32 mg/L (≈ 106 µM) in test [17]. Moreover, the MIC with Actinomyces bovis 13684 (Actinomyces bovis, 13684, 24 h) is less than 0.125 mg/L.
`CCn1nc(-c2ncc([N+](=O)[O-])n2C)c(C#N)c1N` [Compound 16, 5-Amino-1-ethyl-3-(1-methyl-5-nitro-2-imidazolyl)pyrazole-4-carbonitrile]: the MIC in test [1] (setting [23]) is 0.25 mg/L (≈ 0.957 µM); in test [2] (Bacteroides fragilis), less than 0.125 mg/L; in [3] (Bacteroides fragilis), less than 0.125 mg/L; in test [4] (setting [19]) it was less than 0.125 mg/L; in [5] it was less than 0.125 mg/L; in test [6] it was less than 0.125 mg/L. For the same molecule, the MIC in test [7] (setting [20]) was less than 0.125 mg/L; in test [8] (Fusobacterium, 1470, 24 h), less than 0.125 mg/L; in test [9] (Bacteroides fragilis) it was less than 0.125 mg/L; in [10], less than 0.125 mg/L; in the test on Clostridium ramosum 1313 (setting [21]), less than 0.125 mg/L; in test [11] it was 2 mg/L (≈ 7.66 µM). Besides, the MIC in [12] (Bacteroides fragilis) was less than 0.125 mg/L; in [13] (setting [22]), less than 0.125 mg/L; in test [14] (Veillonella parvula, 1, 24 h), less than 0.125 mg/L; in test [15] (Peptococcus anaerobius 1428) it was 1 mg/L (≈ 3.83 µM); in test [16] (Cutibacterium acnes, 79, 24 h), less than 0.125 mg/L; in test [17], more than 32 mg/L. The MIC in the test with Actinomyces bovis 13684 (Actinomyces bovis, 13684, 24 h) was less than 0.125 mg/L.
For `CCCn1nc(-c2ncc([N+](=O)[O-])n2C)c(C#N)c1N` [Compound 22, 5-Amino-1-(n-propyl)-3-(1-methyl-5-nitro-2-imidazolyl)pyrazole-4-carbonitrile], the MIC in test [1] (Bacteroides fragilis), in test [2] (Bacteroides fragilis), in test [3] (Bacteroides fragilis), in test [4] (setting [19]), in test [5] and in test [6] was less than 0.125 mg/L in each case. For the same molecule, the MIC was less than 0.125 mg/L in test [7] (setting [20]); less than 0.125 mg/L in test [8] (Fusobacterium, 1470, 24 h); less than 0.125 mg/L in test [9] (Bacteroides fragilis); less than 0.125 mg/L in [10]; less than 0.125 mg/L with Clostridium ramosum 1313 (setting [21]); 1 mg/L (≈ 3.63 µM) in test [11]. Besides, the MIC in [12] (Bacteroides fragilis) was less than 0.125 mg/L; in test [13] (setting [22]), less than 0.125 mg/L; in test [14] (Veillonella parvula, 1, 24 h) it was less than 0.125 mg/L; in test [15] it was less than 0.125 mg/L; in [16] (Cutibacterium acnes, 79, 24 h) it was less than 0.125 mg/L; in test [17], more than 32 mg/L. Besides, the MIC in the test on Actinomyces bovis 13684 (Actinomyces bovis, 13684, 24 h) was less than 0.125 mg/L.
`CCNc1cc(-c2ncc([N+](=O)[O-])n2C)nn1C` [Compound 11A, 5-(ethylamino)-1-methyl-3-(1-methyl-5-nitro-2-imidazolyl)pyrazole]: the MIC in [1] (setting [23]) was 2 mg/L (≈ 7.99 µM); in [2] (setting [18]), less than 0.03 mg/L; in test [3] (Bacteroides fragilis sp. thetaiotaomicron 1438), 0.06 mg/L (≈ 0.24 µM); in [4] (Collinsella aerofaciens, 24 h, Eubacterium aerofaciens 1235), less than 0.03 mg/L; in test [5], 0.06 mg/L (≈ 0.24 µM); in test [6], 0.06 mg/L (≈ 0.24 µM). Further, the MIC in [7] (24 h, Clostridium innocuum 1373) was 0.125 mg/L (≈ 0.499 µM); in [8] (24 h, Fusobacterium symbiosum 1470), less than 0.03 mg/L; in [9] (Bacteroides fragilis sp. fragilis 1877), 0.06 mg/L (≈ 0.24 µM); in test [10] it was 0.03 mg/L (≈ 0.12 µM); in the test with Clostridium ramosum 1313 (Thomasclavelia ramosa, 24 h, Clostridium ramosum 1313), 0.5 mg/L (≈ 2 µM); in test [11] it was 8 mg/L (≈ 32 µM). Besides, the MIC in test [12] (Bacteroides fragilis sp. vulgatus 1211) is less than 0.03 mg/L; in test [13] (24 h, Fusobacterium necrophorum 13859), less than 0.03 mg/L; in [14] (Veillonella parvula, 24 h, Veillonella alcalescens 1), 1 mg/L (≈ 4 µM); in test [15] (Peptococcus anaerobius 1428), 1 mg/L (≈ 4 µM); in test [16] (Cutibacterium acnes, 24 h, Propionibacterium acnes 79), less than 0.03 mg/L; in test [17] it was 8 mg/L (≈ 32 µM). The MIC with Actinomyces bovis 13684 (24 h, Actinomyces bovis 13684) was 2 mg/L (≈ 7.99 µM).

The values above are taken from patent US3980794A, “Method for promoting growth of poultry with 3-(5-nitro-2-imidazolyl)pyrazoles” (Eli Lilly and Company, priority 1975, dated 1976).
